Measured values as given in patent US20020187126A1, “Methods for viral oncoapoptosis in cancer therapy” (priority 2001, published 2002).

What was measured:
293 cells = experiment: Immunoblots for PARP, caspase-3 and p53 in infected or treated 293 cells; assay type: cell-based, human
Protocol: Cells and viruses. All cells were maintained in Dulbecco's modified Eagle's medium (DMEM) containing 5% fetal bovine serum. […]
Extraction of cells and denaturing gel electrophoresis. Whole extracts of cells were obtained as previously described (Aubert and Blaho, J Virol. 1999, 73:2803-2813; Aubert et al., J. Virol. 1999, 73:10359-70) Protein concentrations were measured using a modified Bradford assay (Biorad) as recommended by the vendor. […]
The results above indicate that cells whose p53 is undermodified are susceptible to apoptosis triggered by rdHSV-1 while those which accumulate phosphorylated p53 are resistant. To confirm the prediction that the amount of phosphorylated p53 present in a given cell is an accurate indicator of whether the cell will be killed by an rdHSV-1, 293 cells were analyzed. […]

[1] = test system: primary human foreskin fibroblast (HFF) cells; experiment: DNA laddering by ethidium bromide staining in HFF cells; assay type: cell-based; settings: low molecular weight DNA
Protocol: (§1) Biochemical induction of apoptosis. Cell apoptosis was induced by the addition of staurosporine (Calbiochem, San Diego, Calif.) to the medium at a final concentration of either 1 or 2 μM. Cells were maintained in the presence of staurosporine for 24 h. TNF (Sigma) was added directly to medium at a final concentration of 10 ng/ml in combination with cycloheximide (Sigma) at a final concentration of 10 μg/ml for 24 h.
DNA laddering by ethidium bromide staining. Low molecular weight DNA was isolated from cells as described (Koyama and Miwa, J. Virol. 1997, 71:2567; Aubert and Blaho, J. Virol. 1999, 73:2803). The DNA samples were subjected to electropheresis in a horizontal 1.5% agarose gel, followed by staining with 10 μg/ml ethidium bromide. DNA was visualilzed by UV light transillumination and photographed with Polaroid 67 film.
The transformed cell lines we analyzed above were of human origin. Thus, it was necessary to confirm our MEF cell results using a primary human cell line. We assessed the p53 status, the susceptibility of rdHSV-1 infection, and the ability to undergo apoptosis of primary human foreskin fibroblast (HFF) cells by immunoblotting, Hoechst staining, and DNA laddering assays. […] Finally, we stained the infected and treated HFF cells with Hoechst DNA dye and visualized cellular and nuclear morphologies by fluorescence and phase-contrast microscopy. […]

primary MEF cells = experiment: Phase-contrast microscopy and Hoechst staining of infected or treated MEF cells; assay type: cell-based, mouse; settings: Hoechst dye, 15 h
Excerpt: Cells and viruses. All cells were maintained in Dulbecco's modified Eagle's medium (DMEM) containing 5% fetal bovine serum. Human larynx epidermoid carcinoma HEp-2 (Moore, Cancer Res.1955, 15:598-605), epithelial cervical carcinoma HeLa S3 (Puck, et al, J. Exp. Med.1956, 103:273-284, osteosarcoma 143B (Post and Roizman, Cell 1981, 25:227-32), and African green monkey kidney Vero (Yasumura and Kawakita, Nippon Rinsho 1963, 21:1209) cells were obtained from the American Type Culture Collection (Rockville, Md. V2.2 is a derivative Vero cell line, which carries a stably integrated copy of the ICP27 gene (Rice and Knipe, J Virol. 1990, 64:1704-15). Adenovirus type 5 transformed human primary embryonal kidney 293 (Graham et al., J Gen Virol. 1977, 36:59-74) and SV40 T antigen expressing 293T cells were obtained from the ATCC. […]
To assess whether rdHSV-1 triggers apoptosis in infected MEF, cell morphologies were documented by phase-contrast microscopy and condensed nuclei were visualized following staining with a fluorescent Hoechst dye. […] Cells were analyzed 15 h post-infection. […] Few, if any, cells with condensed nuclei were detected following infection with either rdHSV-1 strain. […]

[2] = test system: primary human foreskin fibroblast (HFF) cells; experiment: Hoechst staining, fluorescence and phase-contrast microscopy of HFF cells; assay type: cell-based; settings: Hoechst DNA dye
Protocol: as §1
Microscopic analyses and computer graphics. Infected cell phenotypes were documented by phase-contrast light microscopy using an Olympus CK2/PM-10AK3 system with an attached 35 mm camera. For analyses of chromatin condensation, cells were grown and infected (as described above) in a 35-mm plate. At 24 hours post infection, the cells were incubated with the DNA dye Hoechst 33258 (Sigma) at a final concentration of 5 μg/ml in PBS for 15 minutes at 37° C. […]
The transformed cell lines we analyzed above were of human origin. […] We assessed the p53 status, the susceptibility of rdHSV-1 infection, and the ability to undergo apoptosis of primary human foreskin fibroblast (HFF) cells by immunoblotting, Hoechst staining, and DNA laddering assays. […] Finally, we stained the infected and treated HFF cells with Hoechst DNA dye and visualized cellular and nuclear morphologies by fluorescence and phase-contrast microscopy. […]

Question: How did the “signs of apoptosis (PARP processing)” value (293 cells; environmental stimulators, double dose of STS) turn out when `CN[C@@H]1C[C@H]2O[C@@](C)([C@@H]1OC)n1c3ccccc3c3c4c(c5c6ccccc6n2c5c31)C(=O)NC4` [staurosporine] was run?
Answer: no signs of apoptosis were detected

Question: And the “apoptosis (PARP and caspase-3 processing)” value (293 cells; presence or absence of CHX)?
Answer: did not undergo apoptosis

Question: And the “DNA laddering / fragmentation” value [1]?
Answer: DNA fragmentation that migrated as a smear

Question: And the “cells with condensed nuclei / chromatin” value (primary MEF cells)?
Answer: significant number of small apoptotic cells which contained condensed chromatin

Question: And the “condensed chromatin / features of apoptosis” value [2]?
Answer: showed features indicative of apoptosis
